Data set [1] is described as follows: Ex vivo biodistribution: uptake in U87MG tumors and tumor-to-organ ratios. More on the design: species or system nude mice (Balb/cAnNRj-Foxn1nu/nu). Particulars: male, Balb/cAnNRj-Foxn1nu/nu (nude), mouse, iv, total radioactivity; for tissue uptake: U87MG tumor (integrin αvβ3-positive); for tissue uptake / tissue uptake at 1.5 h: ex vivo after PET/CT scan, i.v., n = 3; for tissue to tissue ratio: ex vivo biodistribution, mean (n = 3) ± SD; for tissue uptake at 1.5 h: U87MG tumor. As to the method: (§1) For the evaluation of the in vivo pharmacokinetics, the two most promising HBPLs—[^18F]2 with the highest affinity to both target receptors and [^18F]4 with the highest hydrophilicity and still reasonable binding affinities—were selected. For PET/CT imaging, 6-week-old male nude mice (Balb/cAnNRj-Foxn1^nu/nu) were subcutaneously injected with 5 × 10^5 B16F10 cells into the right flank and 2.0–2.5 × 10^6 U87MG cells into the left flank to generate the respective receptor-positive tumors. When the tumors reached a sufficient size for imaging, each mouse was administered 4.15 ± 2.28 MBq of [^18F]2 or 3.95 ± 2.06 MBq of [^18F]4 via the lateral tail vein under isoflurane anesthesia. To determine the receptor specificity of both peptide parts of the labeled HBPLs and their relative contribution to overall tumor uptake, blocking experiments were also performed. […] After i.v. injection of the tracers, a dynamic PET scan, followed by a CT scan, was performed. The resulting PET/CT images and time–activity curves (TACs) are depicted in Figure 6, Figure 7 and Figure 8. After completion of the diagnostic scans, the mice were sacrificed, their organs (blood, spleen, liver, kidney, pancreas, lung, heart, brain, bone, muscle, tail, tumors, stomach, colon and small intestine) were collected and measured in a γ-counter for ex vivo biodistribution (see Supplementary Materials Table S1 for detailed results).
(§2) Each male nude mouse (six weeks old) was injected subcutaneously with 5 × 10^5 B16F10 cells into the right flank and 2.0–2.5 × 10^6 U87MG cells into the left flank. The health status and tumor growth of the mice were monitored regularly until the animals could be examined after 15–21 days, depending on the tumor size. For the in vivo experiments, the ^18F-radiolabeled compound was diluted in 0.9% saline to give a final EtOH concentration of <10%. Each mouse was injected with 4.15 ± 2.28 MBq of [^18F]2 or 3.95 ± 2.06 MBq of [^18F]4 via the lateral tail vein under isoflurane anesthesia. […] Each ^18F-labeled compound was studied with or without blocking in at least three mice. Mice were measured under isoflurane anesthesia in a small PET/SPECT/CT animal imaging system. First, a dynamic PET scan was performed over 90 min and the scan was framed in 29 timeframes (10 × 1 min, 10 × 2 min, 6 × 5 min, 3 × 10 min). Images were reconstructed using 12 iterations, a maximum likelihood expectation maximization (MLEM) algorithm including corrections for scattered radiation and decay and a voxel size of 0.5 mm. All PET scans were immediately followed by CT acquisition at a voltage of 45 kV and a current of 400 μA. The images were reconstructed using the filtered back projection (FBP) algorithm with a voxel size of 250 μm. The analysis of the data, including the generation of TACs of the kidneys, liver and tumors and the MIPs, was performed via PMOD (v3.8). For ex vivo biodistribution, the mice were sacrificed directly after the PET/CT scan. Organs (blood, spleen, liver, kidneys, pancreas, lungs, heart, brain, bone, muscle, tail, tumors, stomach, colon and small intestine) were collected, weighed and their radioactivity measured in a γ-counter. The percentage injected dose per gram (% ID/g) of each tissue was calculated from the determined values, organ weights, reference values and injected activity.

Data set [2] relates to integrin αvβ3-positive U87MG tumors. The data set is described as above. Particulars: c(RGDyK) blocking (200 μg coinjected); ex vivo after PET/CT scan; i.v.; n = 3. More on the design: species or system nude mice (Balb/cAnNRj-Foxn1nu/nu). As to the method:
as §1, §2

A short description of data set [3]: Stability of radiotracers in human serum (radio-HPLC). It is filed as in vitro ADME. To be noted: 37 °C, 120 min, mean ± SD, read-out: Stability: intact radiotracer after 120 min of incubation in human serum. As to the method:
In addition to the investigation of the radiotracers’ lipophilicity, their stability in human serum was evaluated in order to determine possible stability issues of the newly developed agents. For this purpose, the respective ^18F-labeled HBPLs were incubated in human serum at 37 °C for 120 min. The results of these experiments are summarized in Table 1, and the corresponding radio-HPLC chromatograms for [^18F]2 as representative examples for all compounds studied are depicted in Figure 3A (see Supplementary Materials, Figure S91 for the results obtained for the other radioligands). In Figure 3B, the portions of intact radiotracer over the course of the stability experiments are depicted.
The radiotracer solutions were first diluted with 0.9% NaCl solution to give a final EtOH concentration of <10%. Then, 6 × 25 μL radiotracer solution was added to 6 × 100 μL human serum and incubated at 37°C for 120 min. At defined time points (5, 15, 30, 60, 90 and 120 min), 125 μL EtOH was added to one of the mixtures and the precipitation of serum proteins was supported by ice-cooling for 2 min. After centrifugation at 13.4 rpm for 2 min, the supernatant was analyzed by analytical radio-HPLC (0–100% MeCN + 0.1% TFA in 5 min). The experiment was performed for each compound trice by three independent experiments.

Data set [4] can be described thus: logD(7.4) determination (n-octanol / phosphate buffer distribution). To be noted: n-octanol / 0.05 M phosphate buffer pH 7.4; mean ± SD. It is filed as physicochemical. As to the method: Since high lipophilicity of peptidic radiotracers can lead to a high plasma protein binding, resulting in unspecific organ and high liver uptakes, thus negatively impact tumor visualization, the lipophilicity of the HBPLs was determined to get an approximate estimation of the in vivo biodistribution behavior of the radioligands. Therefore, the logD(7.4) values of the SiFAlin-modified HBPLs [^18F]1–[^18F]6 were determined via their distribution coefficient between n-octanol and phosphate buffer at pH 7.4.
The radiotracer solutions were first diluted with 0.9% NaCl solution to give a final EtOH concentration of <10%. A total of 5 MBq of the respective radiotracer in solution was added to 1.6 mL of a mixture of n-octanol and 0.05 M phosphate buffer (pH = 7.4) (v/v, 1/1), and the solution was vigorously shaken for 5 min. Subsequently, the phases were separated by centrifugation at 13.4 rpm for 2 min, and 100 μL of organic and aqueous phases were collected. The activity of each sample was measured using a gamma counter. The lipophilicity of each compound was determined in triplicate in three independent experiments.

Where [5] appears, read: NDP blocking (20 μg coinjected).
The mark [6] stands for this setting: c(RGDyK) blocking (200 μg coinjected).
[7] abbreviates: double blocking (NDP + c(RGDyK)).
Setting [8] is: U87MG tumor / blood, without blocking, read-out: tumor/blood ratio, U87MG.
The mark [9] stands for this setting: U87MG tumor / kidneys, without blocking, read-out: tumor/kidneys ratio, U87MG.
[10] abbreviates: U87MG tumor / liver, without blocking, read-out: tumor/liver ratio, U87MG.
The mark [11] stands for this setting: U87MG tumor / muscle, without blocking, read-out: tumor/muscle ratio, U87MG.

Like-named read-outs stand apart in the source and are kept apart here.

The source of these data is publication PMC8228600, “Design, Synthesis, In Vitro and In Vivo Evaluation of Heterobivalent SiFAlin-Modified Peptidic Radioligands Targeting Both Integrin αvβ3 and the MC1 Receptor—Suitable for the Specific Visualization of Melanomas?” (Pharmaceuticals, 2021).

As for `CCCC[C@H](NC(=O)CNC(=O)CNC(=O)CCOCCOCCOCCOCCC(=O)NCCCN(CCCNC(=O)CCOCCOCCOCCOCCC(=O)NCCCC[C@@H]1NC(=O)[C@@H](Cc2ccccc2)NC(=O)[C@H](CC(=O)O)NC(=O)CNC(=O)[C@H](CCCNC(=N)N)NC1=O)CC(=O)N[C@@H](CCCCNC(=O)CCC[N+](C)(C)Cc1ccc([Si](F)(C(C)(C)C)C(C)(C)C)cc1)C(N)=O)C(=O)N[C@H]1CC(=O)NCCCC[C@@H](C(N)=O)NC(=O)[C@H](Cc2c[nH]c3ccccc23)NC(=O)[C@H](CCCNC(=N)N)NC(=O)[C@@H](Cc2ccccc2)NC(=O)[C@H](Cc2c[nH]cn2)NC1=O` [[^18F]2], the tissue uptake was 3.19 ± 0.33 %ID/g in data set [1] (setting [5]), 1.48 ± 0.12 %ID/g in data set [1] (setting [6]), 1 ± 0.11 %ID/g in data set [1] (setting [7]) and 2.33 ± 0.46 %ID/g in data set [1] (without blocking). The tissue to tissue ratio in data set [1] (setting [8]) was 2.4 ± 0.67; in data set [1] (setting [9]) it was 0.18 ± 0.02; in data set [1] (setting [10]), 0.14 ± 0.03; in data set [1] (setting [11]) it was 0.79 ± 0.66. The tissue uptake at 1.5 h in data set [1] (without blocking) was found to be 2.33 ± 0.46 %ID/g. Further, the “ID/g, U87MG tumor” value in data set [2] is 1.48 ± 0.12 % ID/g. In data set [3], the remaining at 2 h stood at 85.4 ± 2.8%. Moreover, in data set [4], the pH-dependent lipophilicity (logD) is -1.19 ± 0.05.

Take `CCCC[C@H](NC(=O)CNC(=O)CNC(=O)CCOCCOCCOCCOCCOCCOCCOCCOCCOCCC(=O)NCCCN(CCCNC(=O)CCOCCOCCOCCOCCOCCOCCOCCOCCOCCC(=O)NCCCC[C@@H]1NC(=O)[C@@H](Cc2ccccc2)NC(=O)[C@H](CC(=O)O)NC(=O)CNC(=O)[C@H](CCCNC(=N)N)NC1=O)CC(=O)N[C@@H](CCCCNC(=O)CCC[N+](C)(C)Cc1ccc([Si](F)(C(C)(C)C)C(C)(C)C)cc1)C(N)=O)C(=O)N[C@H]1CC(=O)NCCCC[C@@H](C(N)=O)NC(=O)[C@H](Cc2c[nH]c3ccccc23)NC(=O)[C@H](CCCNC(=N)N)NC(=O)[C@@H](Cc2ccccc2)NC(=O)[C@H](Cc2c[nH]cn2)NC1=O` [[^18F]4]: the tissue uptake came out at 2.53 ± 0.15 %ID/g in data set [1] (setting [5]), 2.67 ± 0.66 %ID/g in data set [1] (setting [6]), 0.9 ± 0.05 %ID/g in data set [1] (setting [7]) and 3.92 ± 1.31 %ID/g in data set [1] (without blocking). In addition, the tissue to tissue ratio came out at 5.08 ± 0.75 in data set [1] (setting [8]), 0.4 ± 0.07 in data set [1] (setting [9]), 0.39 ± 0.14 in data set [1] (setting [10]) and 45.7 ± 8.62 in data set [1] (setting [11]). Moreover, the tissue uptake at 1.5 h in data set [1] (without blocking) turned out to be 3.92 ± 1.31 %ID/g. The “ID/g, U87MG tumor” value in data set [2] is recorded as 2.67 ± 0.66 % ID/g. The remaining at 2 h in data set [3] amounted to 83.6 ± 0.8%. In addition, the logD in data set [4] was -1.39 ± 0.03.

As a reminder, the tissue uptake is the share of the injected amount in each gram of the tissue. The term logD denotes the decadic logarithm of the distribution of all forms, ionised or not, between an organic phase and buffer at a given pH.
